“And” between values parts separate entries of the source, which are not always exact repeats. Equal values may be shown once.
What was measured:
Assay in all cases: radiometric filter-binding kinase assay, Kinase HotSpot
Settings in all cases: compound 0.5 µM; ATP 10 µM
[1] = target: MAPK1 (human) (UniProt P28482)
[2] = target: MAP3K5 (human) (UniProt Q99683)
[3] = target: AXL (human) (UniProt P30530)
[4] = target: ADRBK1 (human) (UniProt P25098)
[5] = target: PRKG1 (human) (UniProt Q13976)
[6] = target: CSK (human) (UniProt P41240)
CSK (human), sequence (P41240 whole entry, looked up): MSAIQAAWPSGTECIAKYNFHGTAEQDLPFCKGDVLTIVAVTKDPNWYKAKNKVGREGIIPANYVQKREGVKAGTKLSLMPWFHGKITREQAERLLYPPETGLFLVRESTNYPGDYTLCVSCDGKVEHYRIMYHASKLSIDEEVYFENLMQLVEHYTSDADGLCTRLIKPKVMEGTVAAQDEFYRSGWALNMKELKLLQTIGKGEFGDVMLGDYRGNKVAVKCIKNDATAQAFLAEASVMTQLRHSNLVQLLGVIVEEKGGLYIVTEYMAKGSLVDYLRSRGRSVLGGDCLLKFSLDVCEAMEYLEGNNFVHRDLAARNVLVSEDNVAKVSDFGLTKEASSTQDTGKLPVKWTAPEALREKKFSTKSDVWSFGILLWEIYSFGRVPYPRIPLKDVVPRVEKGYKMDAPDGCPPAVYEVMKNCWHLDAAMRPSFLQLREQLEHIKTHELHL

[7] = target: STK39 (human) (UniProt Q9UEW8)
[8] = target: DDR2 (human) (UniProt Q16832)
[9] = target: CDK1 CCNA2 (human) (UniProt P06493+P20248)
CDK1 CCNA2 (human), sequence (P06493 whole entry, looked up): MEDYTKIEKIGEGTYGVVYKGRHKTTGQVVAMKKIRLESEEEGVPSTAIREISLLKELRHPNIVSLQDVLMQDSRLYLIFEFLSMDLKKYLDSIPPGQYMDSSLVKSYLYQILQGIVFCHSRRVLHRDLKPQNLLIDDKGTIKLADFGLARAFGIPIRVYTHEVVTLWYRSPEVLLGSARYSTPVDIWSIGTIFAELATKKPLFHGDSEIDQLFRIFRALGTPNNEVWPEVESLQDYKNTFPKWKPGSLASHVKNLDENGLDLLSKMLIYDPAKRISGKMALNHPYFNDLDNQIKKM
CDK1 CCNA2 (human), sequence (P20248 whole entry, looked up): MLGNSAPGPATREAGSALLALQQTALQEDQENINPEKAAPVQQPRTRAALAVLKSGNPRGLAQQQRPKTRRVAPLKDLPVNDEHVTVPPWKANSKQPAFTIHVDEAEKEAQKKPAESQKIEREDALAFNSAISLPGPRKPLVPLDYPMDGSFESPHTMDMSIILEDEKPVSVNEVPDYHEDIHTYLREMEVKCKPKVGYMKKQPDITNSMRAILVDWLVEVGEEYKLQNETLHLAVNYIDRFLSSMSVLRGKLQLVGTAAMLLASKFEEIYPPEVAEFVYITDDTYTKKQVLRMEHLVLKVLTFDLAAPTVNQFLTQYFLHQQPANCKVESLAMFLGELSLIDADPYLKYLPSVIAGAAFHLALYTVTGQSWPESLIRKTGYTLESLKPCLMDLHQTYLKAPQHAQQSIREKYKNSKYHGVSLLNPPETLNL

[10] = target: GSG2 (human) (UniProt Q8TF76)
[11] = target: DYRK2 (human) (UniProt Q92630)
[12] = target: STK33 (human) (UniProt Q9BYT3)
[13] = target: PTK6 (human) (UniProt Q13882)
PTK6 (human), sequence (Q13882 whole entry, looked up): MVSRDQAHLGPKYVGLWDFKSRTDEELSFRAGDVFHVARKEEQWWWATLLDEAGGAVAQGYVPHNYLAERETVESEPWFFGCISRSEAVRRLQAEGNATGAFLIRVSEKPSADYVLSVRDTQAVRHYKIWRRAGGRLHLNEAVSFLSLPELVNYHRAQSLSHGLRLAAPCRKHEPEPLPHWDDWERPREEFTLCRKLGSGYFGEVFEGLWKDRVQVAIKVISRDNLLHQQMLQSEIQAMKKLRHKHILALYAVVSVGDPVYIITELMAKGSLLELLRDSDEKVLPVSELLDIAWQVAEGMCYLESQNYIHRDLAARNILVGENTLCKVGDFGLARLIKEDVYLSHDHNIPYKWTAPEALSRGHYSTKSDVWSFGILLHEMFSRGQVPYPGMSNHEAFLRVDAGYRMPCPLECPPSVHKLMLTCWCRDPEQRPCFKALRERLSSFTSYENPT

[14] = target: MERTK (human) (UniProt Q12866)
[15] = target: DYRK4 (human) (UniProt Q9NR20)
[16] = target: GRK7 (human) (UniProt Q8WTQ7)
[17] = target: PHKG1 (human) (UniProt Q16816)
PHKG1 (human), sequence (Q16816 whole entry, looked up): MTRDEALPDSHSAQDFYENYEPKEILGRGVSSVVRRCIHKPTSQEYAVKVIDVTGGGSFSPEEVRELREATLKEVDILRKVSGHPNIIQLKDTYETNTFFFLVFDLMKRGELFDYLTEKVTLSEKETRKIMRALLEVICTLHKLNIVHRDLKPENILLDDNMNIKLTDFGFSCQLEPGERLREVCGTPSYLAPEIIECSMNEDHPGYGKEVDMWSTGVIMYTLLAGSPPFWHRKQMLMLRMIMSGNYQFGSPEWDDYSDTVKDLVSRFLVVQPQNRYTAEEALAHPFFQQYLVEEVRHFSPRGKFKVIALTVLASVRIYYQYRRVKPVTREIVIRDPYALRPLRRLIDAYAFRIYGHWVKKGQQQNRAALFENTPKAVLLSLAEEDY

[18] = target: PLK1 (human) (UniProt P53350)
[19] = target: EPHA8 (human) (UniProt P29322)
[20] = target: DAPK3 (human) (UniProt O43293)
[21] = target: ITK (human) (UniProt Q08881)
[22] = target: CAMK4 (human) (UniProt Q16566)
[23] = target: BMX (human) (UniProt P51813)
BMX (human), sequence (P51813 whole entry, looked up): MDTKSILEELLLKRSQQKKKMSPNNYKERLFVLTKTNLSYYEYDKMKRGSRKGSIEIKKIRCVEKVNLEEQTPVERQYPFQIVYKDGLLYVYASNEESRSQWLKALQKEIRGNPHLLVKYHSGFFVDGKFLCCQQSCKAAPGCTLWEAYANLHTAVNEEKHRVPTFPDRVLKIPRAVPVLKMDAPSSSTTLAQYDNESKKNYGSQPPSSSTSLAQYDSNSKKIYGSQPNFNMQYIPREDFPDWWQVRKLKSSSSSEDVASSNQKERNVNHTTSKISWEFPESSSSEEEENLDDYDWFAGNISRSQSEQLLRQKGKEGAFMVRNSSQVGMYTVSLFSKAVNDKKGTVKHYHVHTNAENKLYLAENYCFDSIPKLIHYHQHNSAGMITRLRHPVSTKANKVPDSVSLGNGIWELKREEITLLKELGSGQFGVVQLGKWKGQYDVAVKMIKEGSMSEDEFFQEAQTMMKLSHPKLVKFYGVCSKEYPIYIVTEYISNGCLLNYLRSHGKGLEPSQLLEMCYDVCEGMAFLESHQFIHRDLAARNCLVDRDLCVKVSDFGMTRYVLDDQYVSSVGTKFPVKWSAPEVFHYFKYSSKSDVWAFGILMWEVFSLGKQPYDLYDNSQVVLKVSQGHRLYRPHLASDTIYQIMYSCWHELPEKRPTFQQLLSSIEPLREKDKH

[24] = target: MAP3K9 (human) (UniProt P80192)
[25] = target: TGFBR2 (human) (UniProt P37173)
TGFBR2 (human), sequence (P37173 whole entry, looked up): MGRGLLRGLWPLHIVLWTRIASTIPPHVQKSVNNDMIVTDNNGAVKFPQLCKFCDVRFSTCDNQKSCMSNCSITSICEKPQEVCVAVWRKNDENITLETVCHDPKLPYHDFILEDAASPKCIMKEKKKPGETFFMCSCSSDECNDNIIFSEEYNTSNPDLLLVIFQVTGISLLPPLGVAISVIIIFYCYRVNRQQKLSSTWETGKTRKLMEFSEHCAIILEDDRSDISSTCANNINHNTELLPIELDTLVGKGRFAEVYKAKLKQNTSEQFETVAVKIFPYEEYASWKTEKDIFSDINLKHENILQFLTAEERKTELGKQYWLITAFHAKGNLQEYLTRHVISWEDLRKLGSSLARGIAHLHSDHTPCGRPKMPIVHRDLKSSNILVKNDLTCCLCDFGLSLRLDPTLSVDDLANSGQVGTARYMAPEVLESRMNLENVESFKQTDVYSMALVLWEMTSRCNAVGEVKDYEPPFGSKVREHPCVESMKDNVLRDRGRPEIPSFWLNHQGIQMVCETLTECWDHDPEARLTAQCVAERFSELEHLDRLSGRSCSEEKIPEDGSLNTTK

[26] = target: MELK (human) (UniProt Q14680)
MELK (human), sequence (Q14680 whole entry, looked up): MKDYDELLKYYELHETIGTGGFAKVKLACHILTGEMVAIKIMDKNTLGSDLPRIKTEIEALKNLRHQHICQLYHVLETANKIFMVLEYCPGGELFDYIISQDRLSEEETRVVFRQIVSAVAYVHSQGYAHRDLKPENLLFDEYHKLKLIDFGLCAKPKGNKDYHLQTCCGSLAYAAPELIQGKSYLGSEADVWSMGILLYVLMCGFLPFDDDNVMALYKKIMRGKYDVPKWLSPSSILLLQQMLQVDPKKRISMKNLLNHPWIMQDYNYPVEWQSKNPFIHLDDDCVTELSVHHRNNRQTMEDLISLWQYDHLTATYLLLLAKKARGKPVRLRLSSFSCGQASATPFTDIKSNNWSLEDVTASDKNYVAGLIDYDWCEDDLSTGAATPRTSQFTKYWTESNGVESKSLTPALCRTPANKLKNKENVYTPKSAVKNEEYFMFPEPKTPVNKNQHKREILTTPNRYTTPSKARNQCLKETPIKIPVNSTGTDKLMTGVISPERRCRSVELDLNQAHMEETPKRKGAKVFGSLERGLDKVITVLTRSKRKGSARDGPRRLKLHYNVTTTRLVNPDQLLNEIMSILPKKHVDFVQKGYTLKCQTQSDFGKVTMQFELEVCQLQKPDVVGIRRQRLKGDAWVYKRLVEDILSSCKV

[27] = target: GRK4 (human) (UniProt P32298)
[28] = target: ACVR1B (human) (UniProt P36896)
[29] = target: NEK7 (human) (UniProt Q8TDX7)
[30] = target: MAP3K11 (human) (UniProt Q16584)
[31] = target: EPHA1 (human) (UniProt P21709)
[32] = target: MAP2K2 (human) (UniProt P36507)
[33] = target: ROS1 (human) (UniProt P08922)
[34] = target: TEK (human) (UniProt Q02763)
[35] = target: TAOK2 (human) (UniProt Q9UL54)
[36] = target: ULK2 (human) (UniProt Q8IYT8)
[37] = target: PRKCZ (human) (UniProt Q05513)
[38] = target: GSK3B (human) (UniProt P49841)
[39] = target: ULK1 (human) (UniProt O75385)
[40] = target: PRKD3 (human) (UniProt O94806)
[41] = target: NTRK1 (human) (UniProt P04629)
[42] = target: CHEK2 (human) (UniProt O96017)

MAPK1 (human), sequence (P28482 whole entry, looked up): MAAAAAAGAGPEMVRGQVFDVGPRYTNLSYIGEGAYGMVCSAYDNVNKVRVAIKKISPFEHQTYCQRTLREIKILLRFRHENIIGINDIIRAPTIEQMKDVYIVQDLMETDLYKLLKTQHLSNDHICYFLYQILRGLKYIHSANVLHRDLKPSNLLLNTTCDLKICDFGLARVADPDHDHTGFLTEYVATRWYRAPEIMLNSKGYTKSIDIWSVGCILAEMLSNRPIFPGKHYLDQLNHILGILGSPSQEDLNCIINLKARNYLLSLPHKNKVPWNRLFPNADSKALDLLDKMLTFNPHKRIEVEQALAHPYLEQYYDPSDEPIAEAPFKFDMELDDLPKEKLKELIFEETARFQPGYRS
ADRBK1 (human), sequence (P25098 whole entry, looked up): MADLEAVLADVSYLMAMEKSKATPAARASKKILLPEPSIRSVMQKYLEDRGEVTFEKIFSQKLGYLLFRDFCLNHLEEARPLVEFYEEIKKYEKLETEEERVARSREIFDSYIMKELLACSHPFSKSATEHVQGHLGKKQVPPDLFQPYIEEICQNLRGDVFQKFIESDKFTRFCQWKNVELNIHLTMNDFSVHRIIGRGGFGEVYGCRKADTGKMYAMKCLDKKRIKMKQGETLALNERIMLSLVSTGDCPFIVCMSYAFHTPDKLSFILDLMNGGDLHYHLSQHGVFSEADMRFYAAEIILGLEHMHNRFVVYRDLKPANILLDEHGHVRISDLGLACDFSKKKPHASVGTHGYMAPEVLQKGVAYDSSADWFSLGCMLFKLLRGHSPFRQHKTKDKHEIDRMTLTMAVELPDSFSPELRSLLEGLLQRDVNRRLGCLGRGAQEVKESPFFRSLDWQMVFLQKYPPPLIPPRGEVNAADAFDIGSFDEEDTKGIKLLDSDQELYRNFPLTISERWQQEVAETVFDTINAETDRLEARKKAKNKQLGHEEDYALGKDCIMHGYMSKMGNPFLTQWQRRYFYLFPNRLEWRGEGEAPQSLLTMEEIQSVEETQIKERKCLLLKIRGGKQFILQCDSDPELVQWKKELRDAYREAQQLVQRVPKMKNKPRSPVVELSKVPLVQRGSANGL

**Q.** For `CCOc1cc2ncnc(Nc3cccc(Br)c3)c2cc1OCC`, which residual activity [1] is on record?
**A.** 104%

**Q.** What about the residual activity [2] of the same compound?
**A.** 116%

**Q.** What about the residual activity [3] of the same compound?
**A.** 89.9%

**Q.** What about the residual activity [4] of the same compound?
**A.** 95.4%

**Q.** What about the residual activity [5] of the same compound?
**A.** 96% and 96.7%

**Q.** What about the residual activity [6] of the same compound?
**A.** 94%

**Q.** What about the residual activity [7] of the same compound?
**A.** 110%

**Q.** What about the residual activity [8] of the same compound?
**A.** 100%

**Q.** And the residual activity [9]?
**A.** 94.7%

**Q.** And the residual activity [10]?
**A.** 90.6%

**Q.** What about the residual activity [11] of the same compound?
**A.** 88.8%

**Q.** And the residual activity [12]?
**A.** 93.9%

**Q.** And the residual activity [13]?
**A.** 27.7%

**Q.** And the residual activity [14]?
**A.** 87.1%

**Q.** What about the residual activity [15] of the same compound?
**A.** 96.9%

**Q.** What about the residual activity [16] of the same compound?
**A.** 102%

**Q.** And the residual activity [17]?
**A.** 84.2%

**Q.** What about the residual activity [18] of the same compound?
**A.** 93.6%

**Q.** And the residual activity [19]?
**A.** 87.3%

**Q.** What about the residual activity [20] of the same compound?
**A.** 103%

**Q.** What about the residual activity [21] of the same compound?
**A.** 104%

**Q.** And the residual activity [22]?
**A.** 98.7%

**Q.** What about the residual activity [23] of the same compound?
**A.** 95.5%

**Q.** What about the residual activity [24] of the same compound?
**A.** 96.1%

**Q.** And the residual activity [25]?
**A.** 83.4%

**Q.** And the residual activity [26]?
**A.** 88.1%

**Q.** What about the residual activity [27] of the same compound?
**A.** 96.2%

**Q.** And the residual activity [28]?
**A.** 101%

**Q.** And the residual activity [29]?
**A.** 98.6%

**Q.** And the residual activity [30]?
**A.** 93%

**Q.** And the residual activity [31]?
**A.** 84.7%

**Q.** What about the residual activity [32] of the same compound?
**A.** 95.5%

**Q.** What about the residual activity [33] of the same compound?
**A.** 102%

**Q.** What about the residual activity [34] of the same compound?
**A.** 96.4%

**Q.** What about the residual activity [35] of the same compound?
**A.** 101%

**Q.** And the residual activity [36]?
**A.** 82.8%

**Q.** What about the residual activity [37] of the same compound?
**A.** 97.8%

**Q.** What about the residual activity [38] of the same compound?
**A.** 96.8%

**Q.** And the residual activity [39]?
**A.** 98.8%

**Q.** What about the residual activity [40] of the same compound?
**A.** 95.4%

**Q.** What about the residual activity [41] of the same compound?
**A.** 89.6%

**Q.** And the residual activity [42]?
**A.** 92%

**Q.** Which residual activity [1] does the source give for `N#Cc1c(NC(=O)c2cccc3ccccc23)sc2c1CCCC2` here?
**A.** 87.5%

**Q.** And the residual activity [2]?
**A.** 99%

**Q.** And the residual activity [3]?
**A.** 106%

**Q.** What about the residual activity [4] of the same compound?
**A.** 105%

**Q.** And the residual activity [5]?
**A.** 101% and 94.6%

**Q.** And the residual activity [6]?
**A.** 91.5%

**Q.** What about the residual activity [7] of the same compound?
**A.** 94.6%

**Q.** What about the residual activity [8] of the same compound?
**A.** 95.8%

**Q.** And the residual activity [9]?
**A.** 92.1%

**Q.** What about the residual activity [10] of the same compound?
**A.** 99%

**Q.** And the residual activity [11]?
**A.** 119%

**Q.** What about the residual activity [12] of the same compound?
**A.** 93%

**Q.** And the residual activity [13]?
**A.** 89.8%

**Q.** And the residual activity [14]?
**A.** 97.9%

**Q.** And the residual activity [15]?
**A.** 98.1%

**Q.** And the residual activity [16]?
**A.** 116%

**Q.** And the residual activity [17]?
**A.** 93.8%

**Q.** And the residual activity [18]?
**A.** 96.4%

**Q.** And the residual activity [19]?
**A.** 104%

**Q.** And the residual activity [20]?
**A.** 110%

**Q.** What about the residual activity [21] of the same compound?
**A.** 101%

**Q.** What about the residual activity [22] of the same compound?
**A.** 108%

**Q.** What about the residual activity [23] of the same compound?
**A.** 101%

**Q.** What about the residual activity [24] of the same compound?
**A.** 99.5%

**Q.** And the residual activity [25]?
**A.** 104%

**Q.** And the residual activity [26]?
**A.** 83.3%

**Q.** And the residual activity [27]?
**A.** 110%

**Q.** And the residual activity [28]?
**A.** 96.5%

**Q.** What about the residual activity [29] of the same compound?
**A.** 89.2%

**Q.** What about the residual activity [30] of the same compound?
**A.** 103%

**Q.** What about the residual activity [31] of the same compound?
**A.** 103%

**Q.** What about the residual activity [32] of the same compound?
**A.** 106%

**Q.** What about the residual activity [33] of the same compound?
**A.** 96.8%

**Q.** And the residual activity [34]?
**A.** 104%

**Q.** What about the residual activity [35] of the same compound?
**A.** 99.8%

**Q.** What about the residual activity [36] of the same compound?
**A.** 112%

**Q.** And the residual activity [37]?
**A.** 102%

**Q.** And the residual activity [38]?
**A.** 97.5%

**Q.** And the residual activity [39]?
**A.** 99.8%

**Q.** What about the residual activity [40] of the same compound?
**A.** 97.7%

**Q.** And the residual activity [41]?
**A.** 105%

**Q.** And the residual activity [42]?
**A.** 98.5%

**Q.** What does the source list for `N#C/C(=C1/Nc2ccccc2S1)c1ccnc(NCCc2cccnc2)n1`?
**A.** residual activity [1]: 93.5%; residual activity [2]: 102%; residual activity [3]: 106%; residual activity [4]: 103%; residual activity [5]: 97.5% and 99.4%; residual activity [6]: 93.4%; residual activity [7]: 96.9%; residual activity [8]: 94.5%; residual activity [9]: 83%; residual activity [10]: 31%; residual activity [11]: 22.2%; residual activity [12]: 55.4%; residual activity [13]: 46.5%; residual activity [14]: 88.9%; residual activity [15]: 65%; residual activity [16]: 113%; residual activity [17]: 89%; residual activity [18]: 91.4%; residual activity [19]: 98.5%; residual activity [20]: 109%; residual activity [21]: 98.8%; residual activity [22]: 99%; residual activity [23]: 92.9%; residual activity [24]: 100%; residual activity [25]: 102%; residual activity [26]: 91.7%; residual activity [27]: 103%; residual activity [28]: 97.1%; residual activity [29]: 88.2%; residual activity [30]: 72.2%; residual activity [31]: 95.5%; residual activity [32]: 76.2%; residual activity [33]: 92.7%; residual activity [34]: 97.5%; residual activity [35]: 86.4%; residual activity [36]: 116%; residual activity [37]: 102%; residual activity [38]: 6.2%; residual activity [39]: 98.5%; residual activity [40]: 64.7%; residual activity [41]: 106%; residual activity [42]: 93.9%

**Q.** What does the source list for `CCCCc1c(-c2ccc(O)cc2)[nH]c2nccnc12`?
**A.** residual activity [1]: 106%; residual activity [2]: 99.3%; residual activity [3]: 103%; residual activity [4]: 76.5%; residual activity [5]: 88.8% and 94.5%; residual activity [6]: 78.2%; residual activity [7]: 76.1%; residual activity [8]: 96%; residual activity [9]: 60.3%; residual activity [10]: 65.3%; residual activity [11]: 93.1%; residual activity [12]: 80.8%; residual activity [13]: 29.7%; residual activity [14]: 94.1%; residual activity [15]: 99.7%; residual activity [16]: 82.4%; residual activity [17]: 86.7%; residual activity [18]: 96.6%; residual activity [19]: 97.4%; residual activity [20]: 94.9%; residual activity [21]: 104%; residual activity [22]: 93.9%; residual activity [23]: 86.8%; residual activity [24]: 37.3%; residual activity [25]: 55%; residual activity [26]: 82.5%; residual activity [27]: 101%; residual activity [28]: 117%; residual activity [29]: 111%; residual activity [30]: 32.5%; residual activity [31]: 68.8%; residual activity [32]: 84.7%; residual activity [33]: 26.3%; residual activity [34]: 97%; residual activity [35]: 62.7%; residual activity [36]: 112%; residual activity [37]: 97.4%; residual activity [38]: 75.4%; residual activity [39]: 82.5%; residual activity [40]: 67.4%; residual activity [41]: 99.6%; residual activity [42]: 61.1%

Source: the kinase profiling compilation of Christmann-Franck et al. (2016)
